According to PMC7463651, “Phase I/Ib Study of Tenalisib (RP6530), a Dual PI3K δ/γ Inhibitor in Patients with Relapsed/Refractory T-Cell Lymphoma” (Cancers, 2020):
“And” between values parts separate entries of the source, which are not always exact repeats. Equal values may be shown once. Read-outs that look alike come from different tables or passages of the source.

Experiments:
[1] = system: T-cell leukemia xenograft; design: method as in ref 18 = [18]; 18. Mao G. Viswanadha S. Rhizen, Switzerland Unpublished work 2013; details: cited from earlier work
patients = details: cumulative safety data across two studies; cited from earlier work
[2] = design: method as in ref 27 = [27]; 27. Barde P. Rhizen, Switzerland Unpublished work 2016; details: healthy volunteers, high fat meal; cited from earlier work
[3] = system: relapsed/refractory T-cell lymphoma (PTCL and CTCL); experiment: Efficacy assessment (ORR, DoR), all evaluable patients; type: in vivo, human; details: for Median DoR (95% CI) / ORR (95% CI): All
Description: (§1) Efficacy assessments included radiological, bone marrow biopsy/aspiration and skin assessments. In some cases, bone marrow disease alone was used for disease assessment. In these cases, response was reported as CR or non-CR.
(§2) In PTCL patients, radiological assessment was performed at screening, Day 1 of Cycle 3 and 5 and approximately 12 weeks thereafter. Assessments of skin lesions in PTCL patients were performed, if applicable. Bone marrow biopsy/aspirate was performed in patients without measurable but assessable disease at screening and on Day 1 of Cycle 3 and 5, then also approximately 12 weeks thereafter to confirm a CR.
In CTCL patients, assessment of skin lesions was performed at screening, Day 1 of Cycle 3 and 5, approximately 12 weeks thereafter and at the end of treatment (EOT). Skin photographs were obtained for half body global and up to 5 selected representative index lesions at baseline, at Day 1 of Cycle 3, EOT, at PR/CR/progressive disease (PD) and as required as per the discretion of the Investigator. In case of nodal involvement, radiological assessment was performed at screening, Day 1 of Cycle 3 and 5 and approximately 12 weeks thereafter. Skin biopsy was performed from the most indurated area at screening, on C3D1 and to confirm a CR.
(§3) The efficacy parameters included ORR and DoR. Revised Response Criteria for Malignant Lymphoma (Cheson 2007) was used for evaluation of PTCL [21]. International Society for Cutaneous Lymphomas Response Criteria for Mycosis Fungoides and Sezary Syndrome (SS) and Cutaneous Lymphoma Task Force of the European Organization for Research and Treatment of Cancer criteria were used for evaluation of CTCL patients. For skin scoring, the modified Severity Weighted Assessment Tool was used. For local index lesion skin scoring, the Composite Assessment of Index Lesion Severity was used.

relapsed/refractory PTCL = experiment: Efficacy assessment (ORR, DoR), PTCL patients; type: in vivo, human; details: for Median DoR (95% CI) / ORR (95% CI): PTCL
Description: as §1, §2, §3

[4] = Pharmacokinetic assessments in plasma, phase I/Ib study; type: in vivo, human; details: for Fold increase in Cmax: fasting; for AUC(0-inf) / Cmax / AUC / half-life / Tmax / k el: human, plasma, oral; for AUC: read-out: AUC(0-τ); for Tmax: median; for k el: read-out: λz (converted)
Description: Complete PK assessments were performed during dose escalation on Day 1 of Cycle 1 and 2 and pre-dose at other time points (pre-dose on Day 8 and Day 15 of Cycle 1 and 2, Day 1 and Day 15 of Cycle 3 and 4 and pre-dose on Cycle 5 and beyond). In the dose expansion phase, samples were collected pre-dose on Day 1 from Cycle 1 to Cycle 8. The PK parameters included maximum plasma concentration (Cmax), time to maximum plasma concentration (Tmax), area under the plasma concentration-time curve from time of administration to the end of the dosing interval (AUC(0-τ)), apparent oral drug clearance during a dosing interval (CLss/F), apparent volume of distribution during a dosing interval (Vz/F) and elimination half-life (t1/2) were evaluated.

[5] = Dose Escalation 800 mg Fasting, N = 3
[6] = Dose Escalation 800 mg Fed, N = 5
[7] = Dose Expansion 800 mg Fasting, N = 22
[8] = Dose Escalation 800 mg Fasting, N = 1
[9] = Dose Expansion 800 mg Fasting, N = 10
[10] = between 400 mg and 800 mg BID, Cycle 1 Day 1
[11] = 200 mg, 200 mg BID, C1D1, geometric mean
[12] = 200 mg, 200 mg BID, C2D1, geometric mean
[13] = 400 mg, 400 mg BID, C1D1, geometric mean
[14] = 400 mg, 400 mg BID, C2D1, geometric mean
[15] = 800 mg, 800 mg BID (fed), C1D1, geometric mean
[16] = 800 mg, 800 mg BID (fed), C2D1, geometric mean
[17] = 800 mg, 800 mg BID, C1D1, geometric mean
[18] = 800 mg, 800 mg BID, C2D1, geometric mean

## CC[C@H](Nc1ncnc2[nH]cnc12)c1oc2ccccc2c(=O)c1-c1cccc(F)c1 [Tenalisib]
[1]
  Efficacy in xenograft model: demonstrated efficacy
patients
  Colitis and pneumonitis events: no events of colitis and pneumonitis
  Transaminitis incidence: 10%
[2]
  Effect of food on Cmax: no significant effect on Cmax
  Effect of food on overall exposure: increased the overall exposure
[3]; 35 evaluable patients
  Complete response (CR), number of patients: 3 patients
  Partial response (PR): 13 n (%) and 13 (37%) n (%)
  Progressive disease (PD): 8 (22.9%) n (%)
[3]; 35 evaluable patients, three patients
  Complete response (CR): 9%
[3]; Cumulative Total, N = 35
  Median DoR (95% CI): 4.9 months and 4.9 (4.3, 12.0) months
  ORR (95% CI): 45.7% and 45.7 (28.8, 63.4) %
[3]; Dose Escalation 200 mg, N = 3
  Median DoR (95% CI): 4.9 (-,-) months
  ORR (95% CI): 33.3 (0.8, 90.6) %
[3]; Dose Escalation 400 mg, N = 2
  Median DoR (95% CI): 2.4 (0.97, 3.8) months
  ORR (95% CI): 100.0 (15.8, 100.0) %
[3]; [5]
  Median DoR (95% CI): 10.9 (2.3, 19.5) months
  ORR (95% CI): 66.7 (9.4, 99.2) %
[3]; [6]
  Median DoR (95% CI): 3.3 (1.7, 4.9) months
  ORR (95% CI): 40.0 (5.3, 85.3) %
[3]; Dose Escalation Total, N = 13
  Median DoR (95% CI): 3.8 (0.7, 10.2) months
  ORR (95% CI): 53.8 (25.1, 80.8) %
[3]; [7]
  Median DoR (95% CI): 7.5 (4.7, 15.9) months
  ORR (95% CI): 40.9 (20.7, 63.6) %
[3]; out of 35 evaluable patients
  Patients who responded: 16 patients
[3]; responders
  Time of response: Most of the patients responded at Cycle 3 Day 1
relapsed/refractory PTCL; PTCL patients
  Partial response (PR): 4 (26.7%) n (%)
relapsed/refractory PTCL; PTCL patients, three patients
  Complete response (CR): 20%
relapsed/refractory PTCL; Cumulative Total, N = 15
  Median DoR (95% CI): 6.5 months and 6.5 (2.9, 14.9) months
  ORR (95% CI): 46.7% and 46.7 (21.3, 73.4) %
relapsed/refractory PTCL; Dose Escalation 200 mg, N = 2
  Median DoR (95% CI): 4.9 (-,-) months
  ORR (95% CI): 50.0 (1.3, 98.7) %
relapsed/refractory PTCL; Dose Escalation 400 mg, N = 1
  Median DoR (95% CI): 0.97 (-,-) months
  ORR (95% CI): 100.0 (2.5, 100.0) %
relapsed/refractory PTCL; [8]
  Median DoR (95% CI): 19.5 (-,-) months
  ORR (95% CI): 100.0 (2.5, 100.0) %
relapsed/refractory PTCL; Dose Escalation 800 mg Fed, N = 1
  ORR (95% CI): 0.0 (0.0, 97.5) %
relapsed/refractory PTCL; Dose Escalation Total, N = 5
  Median DoR (95% CI): 4.9 (0.0, 19.5) months
  ORR (95% CI): 60.0 (14.7, 94.7) %
relapsed/refractory PTCL; [9]
  Median DoR (95% CI): 7.0 (1.2, 17.3) months
  ORR (95% CI): 40.0 (12.2, 73.8) %
relapsed/refractory PTCL; three PTCL patients who achieved CR
  Median DoR: 13.3 months
[4]; 200 mg BID, C2D1
  λz: 0.4 h⁻¹
[4]; 400 mg BID, C2D1
  λz: 0.4 h⁻¹
[4]; 800 mg BID (fed), C1D1
  λz: 0.3 h⁻¹
[4]; 800 mg BID (fed), C2D1
  λz: 0.3 h⁻¹
[4]; 800 mg BID fasting vs 800 mg BID fed cohort, patients
  Food effect on exposure: not significant
[4]; 800 mg BID, C2D1
  λz: 0.3 h⁻¹
[4]; 800 mg fed and fasting cohorts, patients
  Change in Cmax and AUC's, fed vs fasting: < 20%
[4]; Cycle 1 Day 1
  Dose proportionality of Cmax and AUC(0-τ): increased proportionally with dose
[4]; all cohorts
  Tissue distribution (Vz/F): not highly distributed in tissues
[4]; between 200mg and 400 mg BID, Cycle 1 Day 1
  Fold increase in AUC(0-τ): 1.8 fold
[4]; between 200 mg and 400 mg BID, Cycle 1 Day 1
  Fold increase in Cmax: 1.7 fold
[4]; between 200 mg and 400 mg BID, Cycle 2 Day 1
  Fold increase in Cmax: 1.8 fold
[4]; [10]
  Fold increase in AUC(0-τ): 2.6 fold
  Fold increase in Cmax: 1.8 fold
[4]; between 400 mg and 800 mg BID, Cycle 2 Day 1
  Fold increase in Cmax: 1.1 fold
[4]; between Cycle 1 Day 1 and Cycle 2 Day 1
  Accumulation: no significant accumulation
[4]; [11]
  AUC(0-inf): 3540 ng·h/mL
  Cmax: 1300 ng/mL
  AUC: 3500 ng·h/mL
[4]; 200 mg, 200 mg BID, C1D1, geometric mean, read-out: t1/2 (converted)
  half-life: 1.6 h
[4]; 200 mg, 200 mg BID, C1D1
  Tmax: 1 h
[4]; [12]
  AUC(0-inf): 4020 ng·h/mL
  Cmax: 1650 ng/mL
  AUC: 3970 ng·h/mL
[4]; 200 mg, 200 mg BID, C2D1, geometric mean, read-out: t1/2 (converted)
  half-life: 1.8 h
[4]; 200 mg, 200 mg BID, C2D1
  Tmax: 0.5 h
[4]; [13]
  AUC(0-inf): 6530 ng·h/mL
  Cmax: 2200 ng/mL
  AUC: 6420 ng·h/mL
[4]; 400 mg, 400 mg BID, C1D1, geometric mean, read-out: t1/2 (converted)
  half-life: 1.9 h
[4]; 400 mg, 400 mg BID, C1D1
  Tmax: 0.8 h
[4]; [14]
  AUC(0-inf): 5600 ng·h/mL
  Cmax: 2900 ng/mL
  AUC: 5530 ng·h/mL
[4]; 400 mg, 400 mg BID, C2D1, geometric mean, read-out: t1/2 (converted)
  half-life: 2 h
[4]; 400 mg, 400 mg BID, C2D1
  Tmax: 0.5 h
[4]; [15]
  AUC(0-inf): 14500 ng·h/mL
  Cmax: 2670 ng/mL
  AUC: 13600 ng·h/mL
[4]; 800 mg, 800 mg BID (fed), C1D1, geometric mean, read-out: t1/2 (converted)
  half-life: 2.6 h
[4]; 800 mg, 800 mg BID (fed), C1D1
  Tmax: 2.1 h
[4]; [16]
  AUC(0-inf): 14200 ng·h/mL
  Cmax: 4170 ng/mL
  AUC: 13600 ng·h/mL
[4]; 800 mg, 800 mg BID (fed), C2D1, geometric mean, read-out: t1/2 (converted)
  half-life: 2.8 h
[4]; 800 mg, 800 mg BID (fed), C2D1
  Tmax: 1.1 h
[4]; [17]
  AUC(0-inf): 17400 ng·h/mL
  Cmax: 4000 ng/mL
  AUC: 16400 ng·h/mL
[4]; 800 mg, 800 mg BID, C1D1, geometric mean, read-out: t1/2 (converted)
  half-life: 2.6 h
[4]; 800 mg, 800 mg BID, C1D1
  Tmax: 1.1 h
[4]; [18]
  AUC(0-inf): 17200 ng·h/mL
  Cmax: 3230 ng/mL
  AUC: 16200 ng·h/mL
[4]; 800 mg, 800 mg BID, C2D1, geometric mean, read-out: t1/2 (converted)
  half-life: 2.6 h
[4]; 800 mg, 800 mg BID, C2D1
  Tmax: 2.1 h
[4]; all cohorts, read-out: Median t1/2 (converted)
  half-life: 2.28 h
[4]; all cohorts, read-out: t1/2 range
  half-life: 1.6 to 2.8 h
[4]; 200 mg BID, C1D1
  k el: 0.000111 s⁻¹
[4]; 400 mg BID, C1D1
  k el: 0.000111 s⁻¹
[4]; 800 mg BID, C1D1
  k el: 8.33e-05 s⁻¹
